Data: PubChem BioAssay AID1053168 (Broad Institute, 2014)
Activity calls are given as the source filed them. How the calls were made is not given here.

Columns and labels:
[1] = tested on: Vaccinia-infected cells, mCherry/Venus stage reporter fluorescence; test: Stage specific vaccinia inhibitors, dry powder dose response, infected cell reporter fluorescence (AID 1053168)
[2] = as above; conditions: Vaccinia-infected cells, mCherry/Venus stage reporter fluorescence
[3] = measured here: Venus reporter AC50
[4] = measured here: mCherry reporter AC50

Structure (SMILES) | AC50 [1, 3] | activity change, negative = inhibition ([2]; at 21 µM (top of the series)) | AC50 [1, 4] | AC50 [1] | activity change, negative = inhibition ([2]; at 19.5 µM (top of the series))
N#Cc1ccc(-c2ccc3c(c2)[C@@H]2[C@@H](CCN2C(=O)C2CCCCC2)[C@@H](CO)N3)cc1 | > 42 µM | -10.8% (inactive) | – | – | –
O=C(Nc1ccc2c(c1)[C@@H]1C[C@@H](CC(=O)N3CCCCC3)O[C@@H](CO)[C@@H]1O2)Nc1ccccc1F | – | 3.1% (inactive) | – | – | –
C[C@H](O)C#Cc1ccc2c(c1)O[C@@H](CN(C)Cc1ccc(-c3ccccc3)cc1)[C@@H](C)CN([C@@H](C)CO)S2(=O)=O | > 42 µM | -12.2% (inactive) | > 42 µM | – | –
C[C@H](O)C#Cc1ccc2c(c1)O[C@@H](CN(C)Cc1ccccc1)[C@H](C)CN([C@H](C)CO)S2(=O)=O | > 42 µM | -12.7% (inactive) | > 42 µM | – | –
COc1ccccc1CN1CC[C@@H]2[C@H]1c1cc(-c3ccc(C(=O)N(C)C)cc3)ccc1N[C@@H]2CO | – | -27.4% (inactive) | > 42 µM | – | –
C[C@@H](O)C#Cc1ccc2c(c1)O[C@@H](CN(C)Cc1ccncc1)[C@@H](C)CN([C@@H](C)CO)S2(=O)=O | – | 1.8% (inactive) | – | – | –
CCCNC(=O)c1cc2c(c(-c3cccc(-c4cccc(F)c4)c3)n1)[C@H](CCO)N([S@@](=O)C(C)(C)C)C2 | – | -8.81% (inactive) | > 42 µM | – | –
COc1ccccc1CN1CC[C@@H]2[C@@H](CO)Nc3ccc(C#Cc4ccccc4)cc3[C@@H]21 | – | – | 20.9 µM | 20.9 µM | –
CN1c2ccc(C#Cc3cccnc3)cc2[C@H]2[C@H](CCN2C(=O)C2CCCCC2)[C@@H]1CO | – | 9.03% (inactive) | – | – | –
Cc1noc(C)c1S(=O)(=O)Nc1ccc2c(c1)C(=O)N([C@@H](C)CO)C[C@@H](C)[C@H](CN(C)S(=O)(=O)c1cccs1)O2 | – | -3.33% (inactive) | – | – | –
C[C@H](O)C#Cc1ccc2c(c1)O[C@@H](CN(C)Cc1ccc(-c3ccccc3)cc1)[C@H](C)CN([C@@H](C)CO)S2(=O)=O | 20.5 µM | – | 21.8 µM | 21.8 µM | –
C[C@@H](O)C#Cc1ccc2c(c1)O[C@@H](CN(C)Cc1ccc(-c3ccccc3)cc1)[C@@H](C)CN([C@@H](C)CO)S2(=O)=O | – | – | 3.67 µM | 3.67 µM | –
C[C@H](O)C#Cc1ccc2c(c1)O[C@@H](CN(C)Cc1ccccc1)[C@H](C)CN([C@@H](C)CO)S2(=O)=O | > 42 µM | -8.31% (inactive) | > 42 µM | – | –
N#Cc1ccc(-c2ccc3c(c2)[C@H]2[C@H](CCN2C(=O)C2CCCCC2)[C@H](CO)N3)cc1 | – | – | 20.8 µM | 20.8 µM | –
COc1ccccc1CN1CC[C@H]2[C@H](CO)Nc3ccc(-c4ccc(C(=O)N(C)C)cc4)cc3[C@H]21 | – | -16.1% (inactive) | > 42 µM | – | –
CN(C)C(=O)c1ccc(-c2cccc(-c3nc(C(=O)NC4CCCC4)cc4c3[C@H](CCO)N([S@@](=O)C(C)(C)C)C4)c2)cc1 | – | -8.2% (inactive) | – | – | –
CO[C@H]1CN(C)C(=O)c2ccc(NC(=O)c3ccc(F)cc3)cc2OC[C@H](C)N(C(=O)c2ccc(F)cc2)C[C@@H]1C | – | – | 15.6 µM | 15.6 µM | –
C[C@H](O)C#Cc1ccc2c(c1)O[C@H](CN(C)Cc1ccc(-c3ccccc3)cc1)[C@H](C)CN([C@H](C)CO)S2(=O)=O | 20.3 µM | – | 17.1 µM | 17.1 µM | –
CN1c2ccc(C#Cc3cccnc3)cc2[C@@H]2[C@@H](CCN2C(=O)C2CCC2)[C@H]1CO | – | -4.64% (inactive) | – | – | –
CCOC(=O)[C@@H]1[C@@H]2C=C[C@]3(O2)[C@H](C(=O)NCc2ccccc2)N(CCCCCCO)C(=O)[C@@H]13 | > 42 µM | -18.7% (inactive) | > 42 µM | – | –
C[C@@H](O)C#Cc1ccc2c(c1)O[C@H](CN(C)Cc1ccccc1)[C@@H](C)CN([C@@H](C)CO)S2(=O)=O | – | -5.1% (inactive) | > 42 µM | – | –
C[C@@H](O)C#Cc1ccc2c(c1)O[C@@H](CN(C)Cc1cccnc1)[C@@H](C)CN([C@@H](C)CO)S2(=O)=O | – | 6.15% (inactive) | – | – | –
C[C@@H]1CN([C@H](C)CO)S(=O)(=O)c2ccc(C#C[C@@H](C)O)cc2O[C@H]1CN(C)Cc1ccccc1 | – | -15.2% (inactive) | – | – | –
CN1c2ccc(C#Cc3cccnc3)cc2[C@H]2[C@H](CCN2C(=O)C2CCCCC2)[C@H]1CO | – | 19.5% (inactive) | – | – | –
CCCNC(=O)C[C@H]1CC[C@@H]2[C@@H](COc3ccc(NC(=O)CCC)cc3C(=O)N2C)O1 | – | 2.55% (inactive) | – | – | –
C[C@H](O)C#Cc1ccc2c(c1)O[C@@H](CN(C)Cc1ccccc1)[C@@H](C)CN([C@H](C)CO)S2(=O)=O | – | 16.5% (inactive) | – | – | –
C[C@H](O)C#Cc1ccc2c(c1)O[C@@H](CN(C)Cc1ccc(-c3ccccc3)cc1)[C@H](C)CN([C@H](C)CO)S2(=O)=O | – | -20.1% (inactive) | > 42 µM | – | –
C[C@H](CO)N1C[C@H](C)[C@H](CN(C)Cc2ccc(-c3ccccc3)cc2)Oc2cc(C#C[C@@H](C)O)ccc2S1(=O)=O | > 42 µM | -20% (inactive) | > 42 µM | – | –

Structure (SMILES) | AC50 [1, 3] | activity change, negative = inhibition ([2]; at 21 µM (top of the series)) | AC50 [1, 4] | AC50 [1] | activity change, negative = inhibition ([2]; at 19.5 µM (top of the series))
C[C@H](CO)N1C[C@H](C)[C@H](CN(C)Cc2ccccc2)Oc2cc(C#C[C@@H](C)O)ccc2S1(=O)=O | – | 1.54% (inactive) | – | – | –
COc1ccccc1CN1CC[C@@H]2[C@H]1c1cc(C#Cc3ccccc3)ccc1N[C@@H]2CO | – | – | 20.7 µM | 20.7 µM | –
OC[C@H]1Nc2ccc(-c3cccc(F)c3)cc2[C@H]2[C@@H]1CCN2Cc1ccc(F)cc1 | – | -30.8% (inactive) | > 42 µM | – | –
C[C@H](O)C#Cc1ccc2c(c1)O[C@@H](CN(C)Cc1ccccc1)[C@@H](C)CN([C@@H](C)CO)S2(=O)=O | – | -2.82% (inactive) | – | – | –
C[C@@H](O)C#Cc1ccc2c(c1)O[C@@H](CN(C)Cc1ccccc1)[C@@H](C)CN([C@@H](C)CO)S2(=O)=O | – | -38% (inactive) | – | – | –
CN1c2ccc(-c3ccc(C#N)cc3)cc2[C@@H]2[C@@H](CCN2C(=O)C2CCCCC2)[C@H]1CO | > 42 µM | -26% (inactive) | – | – | –
O=C(Nc1ccc2c(c1)[C@@H]1C[C@@H](CC(=O)N3CCc4ccccc4C3)O[C@@H](CO)[C@@H]1O2)Nc1ccccc1F | – | – | – | – | -50.6% (inactive)
C[C@H](O)C#Cc1ccc2c(c1)O[C@H](CN(C)Cc1ccccc1)[C@H](C)CN([C@H](C)CO)S2(=O)=O | – | -3.27% (inactive) | – | – | –
COc1ccccc1-c1ccc2c(c1)[C@H]1[C@H](CCN1C(=O)C1CCCCC1)[C@@H](CO)N2 | – | – | 18.6 µM | 18.6 µM | –
C[C@H](O)C#Cc1ccc2c(c1)O[C@H](CN(C)Cc1ccccc1)[C@@H](C)CN([C@@H](C)CO)S2(=O)=O | > 42 µM | -24.7% (inactive) | > 42 µM | – | –
C[C@@H](O)C#Cc1ccc2c(c1)O[C@H](CN(C)Cc1ccc(-c3ccccc3)cc1)[C@@H](C)CN([C@@H](C)CO)S2(=O)=O | 20.8 µM | – | 18.9 µM | 18.9 µM | –
C[C@@H]1CN([C@H](C)CO)S(=O)(=O)c2ccc(C#C[C@@H](C)O)cc2O[C@@H]1CN(C)Cc1ccccc1 | – | -2.36% (inactive) | – | – | –
CN1c2ccc(C#Cc3cccnc3)cc2[C@@H]2[C@@H](CCN2C(=O)C2CCC2)[C@@H]1CO | – | 10.1% (inactive) | – | – | –
CN1c2ccc(-c3ccc(C#N)cc3)cc2[C@H]2[C@H](CCN2C(=O)C2CCCCC2)[C@@H]1CO | 20.5 µM | – | 18.9 µM | 18.9 µM | –
C[C@H](CO)N1C[C@H](C)[C@@H](CN(C)Cc2ccc(-c3ccccc3)cc2)Oc2cc(C#C[C@@H](C)O)ccc2S1(=O)=O | – | -19.5% (inactive) | > 42 µM | – | –
CN(C)C(=O)c1ccc(-c2cccc(-c3nc(C(=O)NC4CCCCC4)cc4c3[C@@H](CCO)N([S@](=O)C(C)(C)C)C4)c2)cc1 | – | -8.97% (inactive) | – | – | –
C[C@H]1CCCCO[C@H](CN(C)S(=O)(=O)c2ccc(Cl)cc2)[C@@H](C)CN([C@@H](C)CO)C(=O)c2cc(NC(=O)Nc3ccc(F)cc3)ccc2O1 | > 42 µM | -17.8% (inactive) | > 42 µM | – | –
C[C@H](CO)N1C[C@H](C)[C@@H](CN(C)S(=O)(=O)c2ccc(Cl)cc2)Oc2c(NS(=O)(=O)c3cn(C)cn3)cccc2C1=O | – | -2.63% (inactive) | – | – | –
C[C@H](O)C#Cc1ccc2c(c1)O[C@H](CN(C)Cc1ccccc1)[C@H](C)CN([C@@H](C)CO)S2(=O)=O | – | -6.79% (inactive) | – | – | –
CCCNC(=O)N(C)C[C@@H]1Oc2ncc(C#CC3CCCCC3)cc2C(=O)N([C@H](C)CO)C[C@@H]1C | > 42 µM | -19.2% (inactive) | – | – | –
C[C@H](O)C#Cc1ccc2c(c1)O[C@H](CN(C)Cc1ccccc1)[C@@H](C)CN([C@H](C)CO)S2(=O)=O | – | -3.87% (inactive) | > 42 µM | – | –
C[C@H](O)C#Cc1ccc2c(c1)O[C@H](CN(C)Cc1ccc(-c3ccccc3)cc1)[C@@H](C)CN([C@@H](C)CO)S2(=O)=O | 15.9 µM | – | 16.4 µM | 16.4 µM | –
COc1ccccc1CN1CC[C@@H]2[C@@H](CO)Nc3ccc(-c4ccc(C(=O)N(C)C)cc4)cc3[C@@H]21 | > 42 µM | -12.1% (inactive) | > 42 µM | – | –
C[C@@H]1CN([C@@H](C)CO)C(=O)Cc2cc(NC(=O)C3CCCCC3)ccc2O[C@H]1CN(C)C(=O)Nc1ccccc1 | – | -0.285% (inactive) | – | – | –
C[C@H]1CN([C@@H](C)CO)S(=O)(=O)c2ccc(C#CC(C)(C)O)cc2O[C@H]1CN(C)Cc1ccc(-c2ccccc2)cc1 | 16.6 µM | – | 14.9 µM | 14.9 µM | –
C[C@@H]1CN([C@@H](C)CO)S(=O)(=O)c2ccc(C#C[C@@H](C)O)cc2O[C@@H]1CN(C)Cc1ccccc1 | > 42 µM | -27% (inactive) | – | – | –
CN1c2ccc(C#Cc3cccnc3)cc2[C@H]2[C@H](CCN2C(=O)C2CCC2)[C@@H]1CO | – | -15.9% (inactive) | – | – | –
